Like-named read-outs stand apart in the source and are kept apart here.
Columns and labels:
[1] = biological target: c-Raf (Homo sapiens, UniProt P04049); experiment: Luciferase-coupled chemiluminescence kinase assay (ATP consumption), c-Raf; assay type: biochemical
Protocol: (§1) Tyrosine kinase activity is determined by 1) measurement of kinase-dependent ATP consumption by in the presence of a generic substrate such as […], tyrosine (pEY), by luciferase/luciferin-mediated chemiluminescence or; 2) incorporation of radioactive phosphate derived from ^33P-ATP into a generic substrate which has been adsorbed onto the well surface of polystyrene microtiter plates. Phosphorylated substrate products are quantified by scintillation spectrometry.
(§2) Luciferase-Coupled Chemiluminescence Assay Protocol
(§3) Kinase activity is measured as the percent of ATP consumed following the kinase reaction using luciferase-luciferin-coupled chemiluminescence. Reactions were conducted in 384-well white, medium binding microtiter plates (Greiner). Kinase reactions were initiated by combining test compounds, ATP and kinase in a 20 uL volume. The reaction mixture was incubated at ambient temperature for 3 hrs. For c-Raf, B-Raf, and B-RafV599E, […] of the enzyme was pre-incubated with compound in 20 mM Tris pH 7.5, 10 mM MgCl2, 0.03% TX-100, and 1 mM DTT for 30 minutes at room temperature. Following the kinase reaction, a 20 μL aliquot of luciferase-luciferin mix was added and the chemiluminescence signal measured using a Victor^2 plate reader (Perkin Elmer). The luciferase-luciferin mix contained 50 mM HEPES, pH 7.8, 67 mM oxalic acid (pH 7.8), 5 (or 50) mM DTT, 0.4% Triton X-100, 0.25 mg/mL coenzyme A, 63 μM AMP, 28 μg/mL luciferin and 40,000 units/mL luciferase. Total ATP consumption was limited to 25-60% and the IC50 values correlate well with those determined by radiometric assays.

[2] = biological target: B-Raf (Homo sapiens, UniProt P15056); experiment: Luciferase-coupled chemiluminescence kinase assay (ATP consumption), B-Raf; assay type: biochemical
Chain of B-Raf (P15056 whole entry): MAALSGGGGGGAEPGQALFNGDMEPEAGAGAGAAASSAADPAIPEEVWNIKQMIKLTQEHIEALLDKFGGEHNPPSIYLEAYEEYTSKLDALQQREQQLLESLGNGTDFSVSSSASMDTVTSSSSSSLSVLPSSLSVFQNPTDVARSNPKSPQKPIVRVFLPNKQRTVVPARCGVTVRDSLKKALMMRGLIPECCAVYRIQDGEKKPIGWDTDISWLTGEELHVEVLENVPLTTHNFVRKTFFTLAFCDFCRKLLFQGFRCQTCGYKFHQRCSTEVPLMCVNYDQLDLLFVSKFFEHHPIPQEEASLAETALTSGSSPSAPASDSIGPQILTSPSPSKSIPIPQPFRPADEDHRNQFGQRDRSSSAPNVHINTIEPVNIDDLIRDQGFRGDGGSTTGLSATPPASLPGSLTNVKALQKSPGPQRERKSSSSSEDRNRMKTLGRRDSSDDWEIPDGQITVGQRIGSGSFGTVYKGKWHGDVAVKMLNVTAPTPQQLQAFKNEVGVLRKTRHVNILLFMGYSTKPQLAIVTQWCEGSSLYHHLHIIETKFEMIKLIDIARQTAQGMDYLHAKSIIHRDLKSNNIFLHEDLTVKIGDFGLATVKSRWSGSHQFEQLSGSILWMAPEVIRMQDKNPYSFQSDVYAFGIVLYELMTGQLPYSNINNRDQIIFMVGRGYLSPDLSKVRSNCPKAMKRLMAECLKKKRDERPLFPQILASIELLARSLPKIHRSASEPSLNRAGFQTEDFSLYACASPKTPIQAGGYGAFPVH
Protocol: as §1, §2, §3

[3] = read-out: cRaf-1 (inhibition indicated as IC50)
[4] = read-out: bRaf (inhibition indicated as IC50)

Chain of c-Raf (P04049 whole entry): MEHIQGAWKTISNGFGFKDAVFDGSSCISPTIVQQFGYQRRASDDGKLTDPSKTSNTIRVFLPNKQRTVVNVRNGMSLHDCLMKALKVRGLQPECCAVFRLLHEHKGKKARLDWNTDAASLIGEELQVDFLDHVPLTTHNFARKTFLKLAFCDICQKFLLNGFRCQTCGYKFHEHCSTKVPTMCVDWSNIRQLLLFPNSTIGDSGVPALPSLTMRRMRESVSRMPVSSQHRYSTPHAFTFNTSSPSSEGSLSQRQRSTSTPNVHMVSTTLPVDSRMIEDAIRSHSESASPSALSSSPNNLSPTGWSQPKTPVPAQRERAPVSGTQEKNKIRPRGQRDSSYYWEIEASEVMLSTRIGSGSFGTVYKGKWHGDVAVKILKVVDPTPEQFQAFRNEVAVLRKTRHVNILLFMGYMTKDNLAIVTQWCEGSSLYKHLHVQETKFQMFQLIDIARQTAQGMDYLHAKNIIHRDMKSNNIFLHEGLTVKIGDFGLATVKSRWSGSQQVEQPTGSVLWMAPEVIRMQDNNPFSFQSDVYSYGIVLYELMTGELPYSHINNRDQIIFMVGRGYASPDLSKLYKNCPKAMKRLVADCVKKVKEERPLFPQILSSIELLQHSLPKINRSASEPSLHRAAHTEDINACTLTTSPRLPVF

Structure (SMILES)	IC50 ([1]; read-out: cRaf-1 IC50) [nM]	IC50 ([2]; read-out: bRaf IC50) [nM]	IC50 [1, 3] [nM]	IC50 [2, 4] [nM]
COC(=O)Nc1nc2cc(C3(O)c4ccccc4C(=O)N3c3cc(F)ccc3F)ccc2[nH]1 (stereo not drawn) [Entry 168, methyl {5-[2-(2,5-difluorophenyl)-1-hydroxy-3-oxo-2,3-dihydro-1H-isoindol-1-yl]-1H-benzimidazol-2-yl}carbamate]	< 100	< 100		
CC[C@@H](c1ccccc1)N1C(=O)c2ccccc2C1(O)c1ccc2[nH]c(NC(=O)OC)nc2c1 (stereo partly drawn) [Entry 199, methyl (5-{1-hydroxy-3-oxo-2-[(1S)-1-phenylpropyl]-2,3-dihydro-1H-isoindol-1-yl}-1H-benzimidazol-2-yl)carbamate]	1000 to 10000	1000 to 10000		
COC(=O)Nc1nc2cc(C3(O)c4ccccc4C(=O)N3[C@H](C)c3ccccc3)ccc2[nH]1 (stereo partly drawn) [Entry 104, methyl (5-{1-hydroxy-3-oxo-2-[(1R)-1-phenylethyl]-2,3-dihydro-1H-isoindol-1-yl}-1H-benzimidazol-2-yl)carbamate]	< 100	< 100		
O=C(Nc1nc2cc(C3(O)c4ccccc4C(=O)N3Cc3ccccc3)ccc2[nH]1)OCC(F)(F)F (stereo not drawn) [Entry 196, 2,2,2-trifluoroethyl {5-[1-hydroxy-3-oxo-2-(phenylmethyl)-2,3-dihydro-1H-isoindol-1-yl]-1H-benzimidazol-2-yl}carbamate]	< 100	< 100		
COC(=O)Nc1nc2cc(C(=O)c3ccccc3C(=O)OCc3ccccc3)ccc2[nH]1 [Entry 93, Phenylmethyl 2-[(2-{[(methyloxy)carbonyl]amino}-1H-benzimidazol-5-yl)carbonyl]benzoate]	100 to 1000	100 to 1000		
COC(=O)Nc1nc2cc(C3(O)c4ccccc4C(=O)N3c3ccc(F)cc3)ccc2[nH]1 (stereo not drawn) [Entry 140, methyl {5-[2-(4-fluorophenyl)-1-hydroxy-3-oxo-2,3-dihydro-1H-isoindol-1-yl]-1H-benzimidazol-2-yl}carbamate]	< 100	< 100		
COC(=O)Nc1nc2cc(C3(O)c4ccccc4C(=O)N3c3cccc(S(C)(=O)=O)c3)ccc2[nH]1 (stereo not drawn) [Entry 219, methyl (5-{1-hydroxy-2-[3-(methylsulfonyl)phenyl]-3-oxo-2,3-dihydro-1H-isoindol-1-yl}-1H-benzimidazol-2-yl)carbamate]	100 to 1000	100 to 1000		
COC(=O)Nc1nc2cc(C3(O)c4ccccc4C(=O)N3CC3CCCC3)ccc2[nH]1 (stereo not drawn) [Entry 189, methyl {5-[2-(cyclopentylmethyl)-1-hydroxy-3-oxo-2,3-dihydro-1H-isoindol-1-yl]-1H-benzimidazol-2-yl}carbamate]	< 100	< 100		
O=C1COc2ccc(C3(O)c4ccccc4C(=O)N3c3cccc([N+](=O)[O-])c3)cc2N1 (stereo not drawn) [Entry 42, 6-[1-hydroxy-2-(3-nitrophenyl)-3-oxo-2,3-dihydro-1H-isoindol-1-yl]-2H-1,4-benzoxazin-3(4H)-one]	100 to 1000	1000 to 10000		
CCOC1(c2ccc3[nH]c(NC(=O)OC)nc3c2)c2ccccc2C(=O)N1Cc1ccccc1 (stereo not drawn) [Entry 92, methyl {5-[1-(ethyloxy)-3-oxo-2-(phenylmethyl)-2,3-dihydro-1H-isoindol-1-yl]-1H-benzimidazol-2-yl}carbamate]	100 to 1000	100 to 1000		
COC(=O)Nc1nc2cc(C3(O)c4ccccc4C(=O)N3C(C)c3ccc(C)s3)ccc2[nH]1 (stereo not drawn) [Entry 201, methyl (5-{1-hydroxy-2-[1-(5-methyl-2-thienyl)ethyl]-3-oxo-2,3-dihydro-1H-isoindol-1-yl}-1H-benzimidazol-2-yl)carbamate]	< 100	< 100		
COC(=O)Nc1nc2cc(C3(O)c4ccccc4C(=O)N3CC3CCCCC3)ccc2[nH]1 (stereo not drawn) [Entry 161, methyl {5-[2-(cyclohexylmethyl)-1-hydroxy-3-oxo-2,3-dihydro-1H-isoindol-1-yl]-1H-benzimidazol-2-yl}carbamate]	< 100	< 100		
O=C1COc2ccc(C3(O)c4ccccc4C(=O)N3Cc3cc(Br)ccc3F)cc2N1 (stereo not drawn) [Entry 51, 6-{2-[(5-bromo-2-fluorophenyl)methyl]-1-hydroxy-3-oxo-2,3-dihydro-1H-isoindol-1-yl}-2H-1,4-benzoxazin-3(4H)-one]	1000 to 10000	1000 to 10000		
CC(C)OC(=O)Nc1nc2cc(C3(O)c4ccccc4C(=O)N3Cc3ccccc3)ccc2[nH]1 (stereo not drawn) [Entry 110, 1-methylethyl {5-[1-hydroxy-3-oxo-2-(phenylmethyl)-2,3-dihydro-1H-isoindol-1-yl]-1H-benzimidazol-2-yl}carbamate]	< 100	< 100		
COC(=O)Nc1nc2cc(C3(O)c4ccccc4C(=O)N3c3cccc(C#N)c3)ccc2[nH]1 (stereo not drawn) [Entry 225, methyl {5-[2-(3-cyanophenyl)-1-hydroxy-3-oxo-2,3-dihydro-1H-isoindol-1-yl]-1H-benzimidazol-2-yl}carbamate]	100 to 1000	100 to 1000		
O=C1c2ccccc2C(O)(c2ccc3[nH]ncc3c2)N1Cc1ccccc1 (stereo not drawn) [Entry 94, 3-hydroxy-3-(1H-indazol-5-yl)-2-(phenylmethyl)-2,3-dihydro-1H-isoindol-1-one]	100 to 1000	100 to 1000		
COC(=O)Nc1nc2ccc(C3(O)c4ccccc4C(=O)N3c3cc(N)cc(Cl)c3)cc2[nH]1 (stereo not drawn) [Entry 151, methyl {6-[2-(3-amino-5-chlorophenyl)-1-hydroxy-3-oxo-2,3-dihydro-1H-isoindol-1-yl]-1H-benzimidazol-2-yl}carbamate]	< 100	< 100		

Continued, values first:

IC50 ([1]; read-out: cRaf-1 IC50) [nM]	IC50 ([2]; read-out: bRaf IC50) [nM]	IC50 [1, 3] [nM]	IC50 [2, 4] [nM]	Structure (SMILES)
		< 100	< 100	COC(=O)Nc1nc2cc(C3(O)c4ccccc4C(=O)N3c3c(F)ccc(Cl)c3F)ccc2[nH]1 (stereo not drawn) [Entry 322, methyl {5-[2-(3-chloro-2,6-difluorophenyl)-1-hydroxy-3-oxo-2,3-dihydro-1H-isoindol-1-yl]-1H-benzimidazol-2-yl}carbamate]
		< 100	< 100	O=C1c2c(F)ccc(F)c2C(O)(c2ccc3[nH]c(Nc4ncccn4)nc3c2)N1c1cccc(Cl)c1F (stereo not drawn) [Entry 379, 2-(3-chloro-2-fluorophenyl)-4,7-difluoro-3-hydroxy-3-[2-(pyrimidin-2-ylamino)-1H-benzimidazol-5-yl]-2,3-dihydro-1H-isoindol-1-one]
		< 100	< 100	CN1CCC(CCOC(=O)Nc2nc3cc(C4(O)c5ccccc5C(=O)N4c4cccc(Cl)c4F)ccc3[nH]2)CC1 (stereo not drawn) [Entry 317, 2-(1-methylpiperidin-4-yl)ethyl {5-[2-(3-chloro-2-fluorophenyl)-1-hydroxy-3-oxo-2,3-dihydro-1H-isoindol-1-yl]-1H-benzimidazol-2-yl}carbamate]
		< 100	< 100	O=C(CCCN1CCCCC1)Nc1nc2cc(C3(O)c4ccccc4C(=O)N3c3cccc(Cl)c3F)ccc2[nH]1 (stereo not drawn) [Entry 288, N-{5-[2-(3-chloro-2-fluorophenyl)-1-hydroxy-3-oxo-2,3-dihydro-1H-isoindol-1-yl]-1H-benzimidazol-2-yl}-4-piperidin-1-ylbutanamide]
< 100	< 100			COC(=O)Nc1nc2cc(C3(O)c4ccccc4C(=O)N3c3cc(Cl)c(F)cc3F)ccc2[nH]1 (stereo not drawn) [Entry 245, methyl {5-[2-(5-chloro-2,4-difluorophenyl)-1-hydroxy-3-oxo-2,3-dihydro-1H-isoindol-1-yl]-1H-benzimidazol-2-yl}carbamate]
		< 100	< 100	COC(=O)Nc1nc2ccc(C3(O)c4c(F)ccc(F)c4C(=O)N3c3cccc(Br)c3)cc2[nH]1 (stereo not drawn) [Entry 296, methyl {6-[2-(3-bromophenyl)-4,7-difluoro-1-hydroxy-3-oxo-2,3-dihydro-1H-isoindol-1-yl]-1H-benzimidazol-2-yl}carbamate]
		< 100	< 100	O=C(Nc1nc2ccc(C3(O)c4ccccc4C(=O)N3c3cccc(Cl)c3F)cc2[nH]1)OCCF (stereo not drawn) [Entry 341, 2-fluoroethyl {6-[2-(3-chloro-2-fluorophenyl)-1-hydroxy-3-oxo-2,3-dihydro-1H-isoindol-1-yl]-1H-benzimidazol-2-yl}carbamate]
		< 100	< 100	COC(=O)Nc1nc2ccc(C(=O)c3ccccc3C(=O)NCc3cccs3)cc2[nH]1 [Entry 392, methyl {6-[(2-{[(2-thienylmethyl)amino]carbonyl}phenyl)carbonyl]-1H-benzimidazol-2-yl}carbamate]
< 100	< 100			CC1(C)OC[C@@H](COC(=O)Nc2nc3cc(C4(O)c5ccccc5C(=O)N4Cc4ccccc4)ccc3[nH]2)O1 (stereo partly drawn) [Entry 229, [(4S)-2,2-dimethyl-1,3-dioxolan-4-yl]methyl {5-[1-hydroxy-3-oxo-2-(phenylmethyl)-2,3-dihydro-1H-isoindol-1-yl]-1H-benzimidazol-2-yl}carbamate]
1000 to 10000	1000 to 10000			COC(=O)Nc1nc2ccc(C3(O)c4cc(Cl)c(Cl)cc4C(=O)N3c3cccc(Br)c3)cc2[nH]1 (stereo not drawn) [Entry 266, methyl {6-[2-(3-bromophenyl)-5,6-dichloro-1-hydroxy-3-oxo-2,3-dihydro-1H-isoindol-1-yl]-1H-benzimidazol-2-yl}carbamate]

Source: patent publication US7846959B2, “Raf modulators and methods of use” (Exelixis, Inc., priority 2004, dated 2010)
